Assay results taken from patent EP1676574A2, “Methods for promoting survival of transplanted tissues and cells” (Johnson & Johnson Vision Care, Inc., priority 2004, dated 2006).

Tests used:
J82 cells = assay: Plasma clotting assay with J82 bladder carcinoma cells; assay type: cell-based, human; conditions: p38 inhibitor 10 µM pre-culture 10 days; anti-TF antibody 30 minutes pre-binding; untreated cells 155.01
Protocol: (§1) In the previous example, cells were stimulated overnight to produce TF by LPS induction. Inhibition of this process was achieved by addition of p38 inhibitor compound 1, evaluated by plasma clotting assay. In this example, two types of cells were pre-cultured with the p38 inhibitors compound 1 and compound 2 for 10 days to evaluate the effect of p38 MAPK inhibitors on coagulation. Cells were separately treated using a final concentration of 10 µM of each p38 inhibitor. Parallel treatments of DMSO vehicle were included as a control. Media, containing the above compounds were replenished during culture at intervals of every 2 days.
(§2) Human mesenchymal stem cells (MSC) were isolated from whole bone marrow purchased from Cambrex BioScience Walkersville, Inc. Cells were obtained from 10-ml aspirates taken from the iliac crest of normal human donors (age about 20 years). Mononuclear cells were isolated by gradient centrifugation. […]
(§3) The plasma clotting assay was performed as described in Example 1. Cells were lightly trypsinized from culture on the day of assay, washed, counted, and viability was determined before adjusting to 10^6 cells/ml in HBSS. […] Coagulation was monitored at room temperature in a kinetic plate reader using 15 second interval readings at 405 nm over 60 to 120 minutes. A final reading of T1/2 maximal clotting time was obtained for each sample condition. […]

[1] = system: Peripheral blood mononuclear cells (PBMCs); assay: Plasma clotting assay with PBMCs; assay type: cell-based, human; conditions: p38 inhibitor 10 µM pre-incubated 18 to 24 hours, anti-TF antibody added 30 minutes prior to clotting, OD405
Protocol: Peripheral venous blood was obtained by consent from normal, healthy volunteers and mononuclear cells were isolated using Histopaque 1077 (Sigma) density gradient centrifugation. Following three washes with RPMI (Invitrogen) supplemented with 1% fetal calf serum (FCS), cells were counted and viability was assessed using a Guava PCA-96 instrument (Guava Technologies, Hayward, CA). Cells were resuspended to 1.67 x 10^6 cells/mL in RPMI media containing 10% FCS, and 4 mL/well were added to a 6-well dish (Corning-Costar). Lipopolysaccharide (LPS) was diluted into cell cultures to a final concentration of 10 ng/ml. p38 inhibitor compound 1 was added to cell cultures at a final concentration of 10 µM. An equivalent dilution of DMSO was added to untreated cultures. The following four assay conditions were: (+) LPS (+) p38 inhibitor, (+) LPS (-) p38 inhibitor, (-) LPS (+) p38 inhibitor, and (-) LPS (-) p38 inhibitor. […]
Plasma Clotting Assay. […] Clotting was monitored at 15 second intervals for 2 hours at room temperature using a Spectra MAX 190 (Molecular Devices, Sunnyvale, CA) at a wavelength of 405 nm. […]
PBMCs ([…] in 100 µl of HBSS) were pre-incubated with 25 µl of anti-TF antibody compound 3 (10 µg/ml) for 30 minutes at room temperature in the same 96-well plate as the untreated cells above. […] CaCl2 and pooled human plasma were added and the clotting reaction was monitored as described above.

[2] = system: Human mesenchymal stem cells (MSC); assay: Plasma clotting assay with human mesenchymal stem cells; assay type: cell-based; conditions: p38 inhibitor 10 µM pre-culture 10 days; anti-TF antibody 30 minutes pre-binding; untreated cells 1042.0
Protocol: as §1, §2, §3

isolated mouse islets = assay: Plasma clotting assay with isolated mouse islets; assay type: cell-based, Balb/c mice; conditions: 10 µM p38 inhibitor, islets cultured 72 hours; 50 islets/well; vehicle control 388.6 (compound 2 experiment), 488.9 (second experiment)
Protocol: Pancreata were harvested from Balb/c mice via cannulation of the common bile duct and perfusion with a liberase solution (Roche). Pancreata were digested at 37°C for 15 minutes followed by discontinuous ficoll gradient centrifugation to remove acinar and ductal tissue.
Islets of similar size were collected and plated in 3 ml of islet growth medium in a 6-well culture dish (300 islets per well) with or without p38 MAPK inhibitors (10 µM compound 1 or compound 2). Vehicle control was an equivalent dilution of DMSO. Islets were cultured at 37°C in 5% CO2 for 72 hours. The three treatment conditions were: vehicle control, (+) p38 inhibitor compound 1, and (+)p38 inhibitor compound 2.
Plasma Clotting Assay. […] Clotting was monitored at 15 second intervals for 2 hours at room temperature in a Spectra MAX 190 (Molecular Devices, Sunnyvale, CA) at 405nm. Times to half maximum OD were calculated as 388.6 seconds for the vehicle control and 596.9 seconds for cells treated with p38 inhibitor compound 2. […] In a second experiment, the time to half maximum was calculated as 488.9 seconds for the vehicle control and 974.7 seconds for treated islets. […]

OCCC#Cc1nc(-c2ccc(F)cc2)c(-c2ccncc2)n1CCCc1ccccc1 [compound 1, 4-[4-(4-fluorophenyl)-1-(3-phenylpropyl)-5-(4-pyridinyl)-1H-imidazol-2-yl]-3-butyn-1-ol]
times to reach ½ maximal OD (J82 cells): 160.9 s
time to half the maximum OD ([1]; (+) LPS 10 ng/ml, (+) LPS cells without inhibitor 928.6): 1837.3 s
time to half the maximum OD ([1]; (-) LPS, untreated cells 2946.4): 3289.0 s
time to half the maximum OD [2]: 1882.2 s
Times to half maximum OD (isolated mouse islets): 974.7 s
